For orientation: EC50 means the concentration that produces a half-maximal response. One may read the AC50 as the concentration giving half of the maximal activity seen.

Structures are written as SMILES. Activity calls are given as the source filed them. A value given as a limit tells only on which side of the number the result lay.

A short description of assay [1]: Late stage counterscreen for inhibitors of Trypanosoma brucei methionyl tRNA synthetase (MetRS): Luminescence-based cell-based high throughput dose response assay to identify compounds that are cytotoxic to Jurkat human T lymphocyte cells. Format: functional. A general note: The purpose of a counterscreen is to sort out artefacts and off-target activity.
In assay [2] the target is T1, Methionyl-tRNA synthetase, putative (Trypanosoma brucei brucei, UniProt Q38C91).
T1 sequence (Q38C91 whole entry): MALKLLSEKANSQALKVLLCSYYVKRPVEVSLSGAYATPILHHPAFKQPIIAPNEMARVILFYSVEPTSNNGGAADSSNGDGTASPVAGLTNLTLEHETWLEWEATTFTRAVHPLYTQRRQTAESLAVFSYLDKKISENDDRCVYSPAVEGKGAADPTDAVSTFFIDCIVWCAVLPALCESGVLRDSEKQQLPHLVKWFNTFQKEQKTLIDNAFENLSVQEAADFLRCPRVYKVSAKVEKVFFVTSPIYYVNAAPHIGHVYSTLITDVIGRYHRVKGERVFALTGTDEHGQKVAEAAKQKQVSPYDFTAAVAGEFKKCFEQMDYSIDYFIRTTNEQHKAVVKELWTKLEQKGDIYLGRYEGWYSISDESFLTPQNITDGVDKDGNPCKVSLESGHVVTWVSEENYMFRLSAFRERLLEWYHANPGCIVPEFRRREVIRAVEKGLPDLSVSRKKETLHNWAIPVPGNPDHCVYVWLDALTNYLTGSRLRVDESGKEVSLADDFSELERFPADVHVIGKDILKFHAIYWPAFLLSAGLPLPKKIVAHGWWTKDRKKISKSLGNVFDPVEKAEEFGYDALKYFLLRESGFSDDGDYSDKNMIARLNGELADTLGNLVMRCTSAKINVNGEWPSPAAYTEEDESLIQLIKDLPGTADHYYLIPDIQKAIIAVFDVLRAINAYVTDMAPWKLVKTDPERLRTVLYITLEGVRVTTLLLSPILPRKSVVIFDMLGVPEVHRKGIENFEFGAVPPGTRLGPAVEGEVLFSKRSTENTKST
The class given is functional, Trypanosoma brucei brucei strain 927/4 GUTat10.1.

A short description of assay [3]: Counterscreen for inhibitors of Trypanosoma brucei methionyl tRNA synthetase (MetRS): Luminescence-based cell-based high throughput dose response assay to identify compounds that are cytotoxic to Jurkat human T lymphocyte cells. The class given is functional.
The target in assay [4] is T1, Methionyl-tRNA synthetase, putative. Format: functional, Trypanosoma brucei brucei strain 927/4 GUTat10.1. The source holds these as a separate data set.
Assay [5] is described as follows: NIH3T3 cell viability loss – ATP luminescence, mouse fibroblasts, counter-screen, dose response (AID 2010).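 Note: cells exposed to compound for about 90 hours before reading.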 Format: functional, cell-based.
In another assay the test system is INS1. Kind of assay: INS-1E survival protection against cytokine death – cell-based, luminescence, retest, dose response (AID 449756).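 Note: cell death triggered by IL-1 beta plus TNF-alpha plus IFN-gamma mixture; protective hits raise ATP signal compared with cytokine alone wells.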 The class given is functional. The following applies: Rattus norvegicus.
A short description of assay [6]: cells.
Assay [7] has as its target COUP transcription factor 2 (Homo sapiens, UniProt P24468). Kind of assay: Luminescence-based cell-based high throughput dose response assay to identify inhibitors of COUP-TFII (NR2F2). The class given is functional.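 Note: HEK293 cells transiently cotransfected with COUP-TFII expression vector and reporter; luciferase reporter luminescence driven by COUP-TFII from the pX2-168 reporter plasmid.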
Assay [8] in a line: Trypanosoma cruzi growth suppression in host cells – NIH3T3 host cells, beta-gal luminescence, confirmation (AID 2044).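 Note: intracellular parasites grown in NIH/3T3 mouse fibroblasts as host cells; luminescent beta-galactosidase reporter signal from transgenic T. cruzi replicating inside host cells; inhibitors lower the luminescence signal.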 Format: functional, cell-based.
The nature of assay [9]: COV434 cell viability loss – plate reader, dry powder, SA7, cytotoxicity control for PAX8 inhibitor project, dose response (AID 743145). The class given is functional, cell-based.
The nature of assay [10]: inhibitors acting on PAX2 in cells – cell-based, plate reader, dry powder samples, selectivity assay for PAX8 inhibitor project, dose response (AID 743048).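 Note: HEK293 cells carrying a WT1 promoter luciferase reporter driven by expressed Pax2; potency is for inhibition of Pax2 driven reporter signal.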 Format: functional.
The nature of assay [11]: fluconazole-exposed Candida albicans growth modulators – fluorescence, retest, confirmation (AID 2467). Format: functional, cell-based.
A short description of assay [12]: OVCAR-3 cell viability loss – plate reader, dry powder samples, PAX8 inhibitor project, dose response (AID 743044). The class given is functional, cell-based.
A short description of assay [13]: PAX8-dependent cell viability loss – plate reader, dry powder, dose response (AID 743049). The class given is functional, cell-based.
Assay [14] can be described thus: OVCAR4 cell viability loss – plate reader, dry powder, SA11, cytotoxicity control for PAX8 inhibitor project, dose response (AID 743150). The conditions noted are these: OVCAR-4. Format: functional, cell-based.
Assay [15] can be described thus: IGROV1 cell killing – plate reader, dry powder samples, PAX8 inhibitor project, dose response (AID 743043). The following applies: IGROV-1. The class given is functional, cell-based.
In a further assay the target is Paired box protein Pax-8 (Homo sapiens, UniProt Q06710). The assay is described as follows: PAX8 transcriptional activity inhibition in RMG-I – RMG-I cells, luciferase, cherry-pick, dose response (AID 687027).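 Note: luciferase reporter driven by Pax8 target thyroperoxidase promoter measured by SteadyGlo luminescence.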 Format: functional, cell-based.
Assay [16] in a line: NIH-3T3 fibroblast cytotoxicity, dose response, cytotoxicity control, cell-based, fluorescence, Alamar Blue, secondary assay (AID 2327).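 Note: NIH-3T3 mouse fibroblasts cultured with fluconazole at 8 µg/mL.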 Format: functional. Background: Resazurin is reduced to fluorescent resorufin, in cell work by metabolically active cells.
Assay [17] in a line: OV-90 cell viability loss – plate reader, dry powder, SA8, PAX8 inhibitor project, dose response (AID 743149). Format: functional, cell-based.
In assay [18] the target is 1-phosphatidylinositol 4,5-bisphosphate phosphodiesterase gamma-1 (Homo sapiens, UniProt P19174). Kind of assay: Counterscreen for inhibitors of phospholipase C isozymes (PLC-B3): Fluorescence-based biochemical high throughput dose response assay to identify inhibitors of phospholipase C isozymes (PLC-gamma1).
In assay [19] the target is Induced myeloid leukemia cell differentiation protein Mcl-1 (Homo sapiens, UniProt Q07820). Format: functional.
Assay [20] has as its target T2, Small ubiquitin-related modifier 1 (Homo sapiens, UniProt P63165). The assay is described as follows: SUMO1 protein-protein binding blockers, potency – biochemical, FRET, dose response (AID 624383). The class given is functional. The following applies: read-out: IC50_Mean.
The target of assay [21] is T3, Bifunctional protein GlmU (Mycobacterium tuberculosis, UniProt P9WMN3).
T3 sequence (P9WMN3 whole entry): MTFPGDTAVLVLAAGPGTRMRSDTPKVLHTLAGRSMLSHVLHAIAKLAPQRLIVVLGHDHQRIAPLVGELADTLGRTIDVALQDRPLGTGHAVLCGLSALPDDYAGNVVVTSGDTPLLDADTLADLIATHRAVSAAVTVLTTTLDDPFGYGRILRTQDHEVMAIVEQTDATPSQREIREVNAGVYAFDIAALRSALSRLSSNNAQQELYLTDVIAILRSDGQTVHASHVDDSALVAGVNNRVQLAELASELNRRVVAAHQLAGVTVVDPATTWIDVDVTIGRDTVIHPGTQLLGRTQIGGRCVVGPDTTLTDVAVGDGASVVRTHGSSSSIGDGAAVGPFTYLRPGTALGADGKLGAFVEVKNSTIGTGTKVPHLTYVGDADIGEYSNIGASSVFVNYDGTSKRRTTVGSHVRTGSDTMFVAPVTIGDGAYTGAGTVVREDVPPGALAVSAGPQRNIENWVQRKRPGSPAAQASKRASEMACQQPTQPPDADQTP
The assay is described as follows: Inhibitors of Mycobacterial Glucosamine-1-phosphate acetyl transferase (GlmU). Secondary screen. Set-up: species or system Mycobacterium tuberculosis H37Rv.

Assay [22] concerns the target T4, Dual specificity protein phosphatase 6 (Rattus norvegicus, UniProt Q64346).
T4 sequence (Q64346 whole entry): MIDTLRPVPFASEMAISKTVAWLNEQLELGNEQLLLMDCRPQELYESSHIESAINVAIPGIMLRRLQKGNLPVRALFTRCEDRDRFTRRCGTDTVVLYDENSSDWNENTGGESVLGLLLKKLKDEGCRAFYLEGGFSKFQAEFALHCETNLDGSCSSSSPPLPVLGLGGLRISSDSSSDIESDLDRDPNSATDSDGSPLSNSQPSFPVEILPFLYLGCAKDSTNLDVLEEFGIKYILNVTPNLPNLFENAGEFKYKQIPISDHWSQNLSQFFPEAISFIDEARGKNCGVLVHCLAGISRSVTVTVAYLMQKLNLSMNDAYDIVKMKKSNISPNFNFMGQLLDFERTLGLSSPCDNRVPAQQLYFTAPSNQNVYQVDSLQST
Kind of assay: inhibition of rat DUSP6 enzyme activity – biochemical, in vitro, primary screen (AID 425).

The target of assay [23] is Apoptotic protease-activating factor 1 (Homo sapiens, UniProt O14727). The assay is described as follows: activation of Apaf-1 mediated apoptosis – fluorescent, uHTS hits, dose response (AID 588554). Format: functional.
Assay [24] addresses T5, Dual specificity protein phosphatase 3 (Homo sapiens, UniProt P51452). The assay is described as follows: VHR1 phosphatase inhibitors, primary screen, biochemical, absorbance, uHTS (AID 1654).
Assay [25] concerns the target 1-phosphatidylinositol 4,5-bisphosphate phosphodiesterase beta-3 (Homo sapiens, UniProt Q01970). Kind of assay: Fluorescence-based biochemical high throughput dose response assay to identify inhibitors of phospholipase C isozymes (PLC-B3).
Assay [26] addresses T5, Dual specificity protein phosphatase 3. The assay is described as follows: VHR1 phosphatase inhibitors, biochemical (AID 1878).
Assay [27] addresses T2, Small ubiquitin-related modifier 1. The assay is described as follows: SUMO1 protein interaction blockers, potency – biochemical, fluorescence polarization, uHTS hits, dose response (AID 624382). The conditions noted are these: read-out: IC50_Mean. The class given is functional.
Assay [28] is described as follows: alpha-synuclein stem-loop luciferase translation blockers – H4 neuroglioma cells, luminescence, confirmation (AID 1988). The class given is functional, cell-based.
Assay [29] can be described thus: Luminescence Cell-Based Dose Response HTS to Identify Inhibitors of 5'UTR Stem-Loop Driven Prion Protein mRNA Translation in H4 Neuroglioblastoma Cells. [Related pubchem assays: 1827 (Project Summary), 1813 (Primary HTS)]. Format: functional.
Assay [30] in a line: luciferase reporter signal suppression in cells – H4 neuroglioma cells, luminescence, dose response (AID 1990). The class given is functional, cell-based.
The nature of assay [31]: cells. This is another data set of the same source.
The nature of assay [32]: A Cell-Based Confirmatory Screen for Compounds that Inhibit VEEV, TC-83 (8). Format: functional.
The nature of assay [33]: A Cell-Based Confirmatory Screen for Compounds that Inhibit VEEV, TC-83 (5). The class given is functional.

T2 sequence (P63165 whole entry): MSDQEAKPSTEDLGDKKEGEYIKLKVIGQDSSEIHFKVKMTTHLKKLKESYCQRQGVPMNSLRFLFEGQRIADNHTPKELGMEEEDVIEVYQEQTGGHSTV
T5 sequence (P51452 whole entry): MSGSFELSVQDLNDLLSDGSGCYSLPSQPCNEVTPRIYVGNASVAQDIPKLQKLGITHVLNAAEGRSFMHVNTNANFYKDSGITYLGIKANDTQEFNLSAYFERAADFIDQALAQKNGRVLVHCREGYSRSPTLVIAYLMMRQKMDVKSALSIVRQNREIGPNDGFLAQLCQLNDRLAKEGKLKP
Chain of 1-phosphatidylinositol 4,5-bisphosphate phosphodiesterase gamma-1 (P19174 whole entry): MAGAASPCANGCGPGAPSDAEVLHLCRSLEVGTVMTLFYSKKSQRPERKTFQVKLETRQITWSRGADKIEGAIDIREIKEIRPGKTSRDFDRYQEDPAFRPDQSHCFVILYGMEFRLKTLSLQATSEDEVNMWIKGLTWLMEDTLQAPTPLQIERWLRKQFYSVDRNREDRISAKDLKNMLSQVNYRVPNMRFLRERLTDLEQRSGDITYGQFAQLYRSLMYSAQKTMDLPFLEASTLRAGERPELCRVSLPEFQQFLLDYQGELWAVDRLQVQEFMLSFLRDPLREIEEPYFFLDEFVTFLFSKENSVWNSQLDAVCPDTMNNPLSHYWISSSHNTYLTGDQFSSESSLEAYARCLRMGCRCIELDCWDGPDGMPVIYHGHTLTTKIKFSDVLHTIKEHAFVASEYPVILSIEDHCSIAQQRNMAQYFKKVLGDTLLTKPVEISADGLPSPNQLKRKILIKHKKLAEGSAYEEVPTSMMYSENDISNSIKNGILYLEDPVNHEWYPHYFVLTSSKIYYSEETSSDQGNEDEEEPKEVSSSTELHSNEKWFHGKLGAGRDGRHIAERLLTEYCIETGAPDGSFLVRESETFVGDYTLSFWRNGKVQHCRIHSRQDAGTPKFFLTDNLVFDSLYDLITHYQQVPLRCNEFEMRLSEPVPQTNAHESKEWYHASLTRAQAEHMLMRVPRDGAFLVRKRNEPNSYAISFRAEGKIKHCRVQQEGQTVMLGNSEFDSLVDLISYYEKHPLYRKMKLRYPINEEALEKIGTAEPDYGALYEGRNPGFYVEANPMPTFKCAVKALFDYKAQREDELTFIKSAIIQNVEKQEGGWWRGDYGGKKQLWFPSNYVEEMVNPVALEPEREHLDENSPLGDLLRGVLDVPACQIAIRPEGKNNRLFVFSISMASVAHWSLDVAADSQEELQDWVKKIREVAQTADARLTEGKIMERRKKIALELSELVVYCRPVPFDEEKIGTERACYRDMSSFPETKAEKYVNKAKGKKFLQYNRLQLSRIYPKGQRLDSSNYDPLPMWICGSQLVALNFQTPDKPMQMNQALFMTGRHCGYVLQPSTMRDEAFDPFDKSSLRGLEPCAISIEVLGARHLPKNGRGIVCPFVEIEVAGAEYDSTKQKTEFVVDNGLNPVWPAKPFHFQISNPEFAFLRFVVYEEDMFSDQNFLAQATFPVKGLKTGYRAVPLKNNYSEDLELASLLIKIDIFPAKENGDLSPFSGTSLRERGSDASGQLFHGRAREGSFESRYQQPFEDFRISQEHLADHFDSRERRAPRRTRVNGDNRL
Chain of Induced myeloid leukemia cell differentiation protein Mcl-1 (Q07820 whole entry): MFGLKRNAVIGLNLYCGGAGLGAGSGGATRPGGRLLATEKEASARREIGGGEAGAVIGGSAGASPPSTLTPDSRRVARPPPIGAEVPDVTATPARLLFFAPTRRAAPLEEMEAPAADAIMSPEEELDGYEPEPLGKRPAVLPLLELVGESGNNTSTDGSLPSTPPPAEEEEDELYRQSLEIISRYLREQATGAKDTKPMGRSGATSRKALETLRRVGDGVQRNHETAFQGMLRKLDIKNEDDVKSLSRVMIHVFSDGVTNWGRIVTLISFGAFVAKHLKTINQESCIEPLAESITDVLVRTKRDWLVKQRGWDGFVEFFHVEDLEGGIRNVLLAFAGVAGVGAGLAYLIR
Chain of COUP transcription factor 2 (P24468 whole entry): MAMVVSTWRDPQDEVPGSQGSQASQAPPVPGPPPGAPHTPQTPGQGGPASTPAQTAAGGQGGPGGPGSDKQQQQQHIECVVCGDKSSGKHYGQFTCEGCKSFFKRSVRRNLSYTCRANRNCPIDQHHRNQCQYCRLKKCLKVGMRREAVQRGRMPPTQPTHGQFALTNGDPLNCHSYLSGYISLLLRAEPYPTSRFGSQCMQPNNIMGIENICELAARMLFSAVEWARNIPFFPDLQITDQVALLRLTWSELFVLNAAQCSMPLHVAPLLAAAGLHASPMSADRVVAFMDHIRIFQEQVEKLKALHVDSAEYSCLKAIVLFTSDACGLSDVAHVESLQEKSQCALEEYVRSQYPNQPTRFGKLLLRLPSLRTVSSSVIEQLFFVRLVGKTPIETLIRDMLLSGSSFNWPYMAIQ
Chain of Apoptotic protease-activating factor 1 (O14727 whole entry): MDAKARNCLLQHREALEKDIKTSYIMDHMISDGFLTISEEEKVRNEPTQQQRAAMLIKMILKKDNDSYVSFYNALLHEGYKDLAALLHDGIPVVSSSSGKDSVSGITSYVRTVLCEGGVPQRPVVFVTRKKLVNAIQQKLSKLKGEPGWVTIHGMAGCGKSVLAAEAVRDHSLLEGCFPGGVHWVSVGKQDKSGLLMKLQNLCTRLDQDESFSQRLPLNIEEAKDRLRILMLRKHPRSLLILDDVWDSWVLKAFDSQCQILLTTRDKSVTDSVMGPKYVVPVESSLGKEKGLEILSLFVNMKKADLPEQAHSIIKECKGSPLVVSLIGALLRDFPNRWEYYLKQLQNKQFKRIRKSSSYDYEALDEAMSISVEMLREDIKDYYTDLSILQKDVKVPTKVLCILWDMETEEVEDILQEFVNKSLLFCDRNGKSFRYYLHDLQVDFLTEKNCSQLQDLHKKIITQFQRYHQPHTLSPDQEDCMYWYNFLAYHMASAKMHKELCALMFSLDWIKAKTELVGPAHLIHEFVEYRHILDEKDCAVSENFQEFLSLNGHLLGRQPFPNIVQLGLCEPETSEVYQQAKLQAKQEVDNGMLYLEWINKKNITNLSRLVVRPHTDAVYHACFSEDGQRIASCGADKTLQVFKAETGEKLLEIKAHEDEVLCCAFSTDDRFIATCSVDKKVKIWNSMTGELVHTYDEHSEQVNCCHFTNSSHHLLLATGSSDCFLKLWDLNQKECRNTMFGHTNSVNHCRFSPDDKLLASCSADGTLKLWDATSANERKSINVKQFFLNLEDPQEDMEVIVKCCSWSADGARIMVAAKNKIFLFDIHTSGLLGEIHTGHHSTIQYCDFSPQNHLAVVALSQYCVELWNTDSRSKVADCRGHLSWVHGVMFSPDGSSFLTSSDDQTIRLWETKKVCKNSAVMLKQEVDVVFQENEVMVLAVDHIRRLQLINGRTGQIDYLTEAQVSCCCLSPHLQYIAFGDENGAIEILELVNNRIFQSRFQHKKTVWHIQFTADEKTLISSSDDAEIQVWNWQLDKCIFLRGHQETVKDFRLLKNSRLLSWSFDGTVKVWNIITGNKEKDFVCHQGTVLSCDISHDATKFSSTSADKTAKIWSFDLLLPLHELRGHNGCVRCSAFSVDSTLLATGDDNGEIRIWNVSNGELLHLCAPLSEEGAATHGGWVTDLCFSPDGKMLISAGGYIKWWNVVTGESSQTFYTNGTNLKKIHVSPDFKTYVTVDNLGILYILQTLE
Chain of 1-phosphatidylinositol 4,5-bisphosphate phosphodiesterase beta-3 (Q01970 whole entry): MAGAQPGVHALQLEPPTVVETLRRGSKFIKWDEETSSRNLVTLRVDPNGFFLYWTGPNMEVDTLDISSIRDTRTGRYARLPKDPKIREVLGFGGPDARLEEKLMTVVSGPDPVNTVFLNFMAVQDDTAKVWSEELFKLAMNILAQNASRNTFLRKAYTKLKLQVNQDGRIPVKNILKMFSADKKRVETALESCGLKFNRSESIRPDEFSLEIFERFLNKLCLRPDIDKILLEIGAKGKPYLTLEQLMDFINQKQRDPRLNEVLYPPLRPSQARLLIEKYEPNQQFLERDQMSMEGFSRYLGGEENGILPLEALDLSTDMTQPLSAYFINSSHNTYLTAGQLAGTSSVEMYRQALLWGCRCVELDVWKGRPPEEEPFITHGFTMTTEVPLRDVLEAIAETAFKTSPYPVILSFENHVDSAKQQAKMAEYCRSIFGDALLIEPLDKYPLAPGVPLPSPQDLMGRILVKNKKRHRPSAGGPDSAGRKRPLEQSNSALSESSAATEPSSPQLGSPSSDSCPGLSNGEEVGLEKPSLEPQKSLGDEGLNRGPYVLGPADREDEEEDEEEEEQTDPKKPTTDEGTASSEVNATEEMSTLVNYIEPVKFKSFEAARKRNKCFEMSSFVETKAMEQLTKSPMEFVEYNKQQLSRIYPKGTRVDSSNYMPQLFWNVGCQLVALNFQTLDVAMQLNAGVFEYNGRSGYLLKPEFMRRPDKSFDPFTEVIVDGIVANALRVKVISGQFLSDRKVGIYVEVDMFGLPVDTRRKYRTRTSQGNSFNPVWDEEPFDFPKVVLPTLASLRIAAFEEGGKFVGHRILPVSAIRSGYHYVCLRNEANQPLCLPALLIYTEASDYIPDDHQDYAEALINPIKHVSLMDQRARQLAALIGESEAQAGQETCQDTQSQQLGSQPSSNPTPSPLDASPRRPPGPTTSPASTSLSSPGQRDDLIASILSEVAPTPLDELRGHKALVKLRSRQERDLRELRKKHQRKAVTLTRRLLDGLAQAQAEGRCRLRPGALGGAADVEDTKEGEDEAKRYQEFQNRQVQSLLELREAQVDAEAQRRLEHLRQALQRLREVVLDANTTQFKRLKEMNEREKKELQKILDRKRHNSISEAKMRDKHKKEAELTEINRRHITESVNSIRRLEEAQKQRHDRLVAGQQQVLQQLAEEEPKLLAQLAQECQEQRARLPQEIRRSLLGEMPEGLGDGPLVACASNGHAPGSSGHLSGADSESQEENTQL

`O=C(NCc1nc2ccccc2[nH]1)C1=C[C@@H](c2ccc(Br)cc2)C[C@@H](OCCCCO)O1`: the IC50 in assay [1] was 48.4 µM (inactive); in [2] it was 0.27 µM (active); in assay [3], 83.3 µM (inactive); in [4], 0.551 µM (active).
As to `Cc1ccc(-c2cc3cccc[n+]3cc2-c2ccc(C)cc2)cc1`, the values for the EC50 (in assay [5]; in “cells [6]”; in assay [8]) were > 60 µM (not active), 0.019 µM (active) and < 0.1 µM (active), respectively. Further, the AC50 in the assay on INS1 was 0.572 µM (active). Further, the IC50 in assay [7] was 5.1 µM (active).
For the compound `CC(C)(C)c1nnc(NC(=O)CCS(=O)(=O)c2ccccc2)s1`, the AC50 in assay [9] is > 100 µM (inactive); in assay [10], > 52 µM (inactive); in [12], 48.2 µM (active); in assay [13], 25 µM (active); in [14], 4.22 µM (active); in [15] it was 50.7 µM (active). Further, the half-maximal activity concentration (AC50) was 4.6 µM (active) on Paired box protein Pax-8 and > 100 µM (inactive) in [17]. Further, the EC50 in [11] was 1.09 µM (active); in [16], > 150 µM (inactive).
Regarding `O=C(O)c1cccc(-c2ccc(/C=c3/sc4nc5ccccc5n4c3=O)o2)c1`, the IC50 in assay [18] was > 122 µM (inactive); in assay [19] it was 1.74 µM (active); in assay [20], 8.7 µM (active); in [21], 101 µM (active); in assay [22], 118 µM (not active); in assay [24], 4.98 µM (active). Moreover, the IC50 was > 122 µM (inactive) in assay [25], 2.27 µM (active) in assay [26] and > 66.6 µM (inactive) in assay [27]. Besides, the concentration giving a half-maximal response (EC50) in assay [23] was 9.48 µM (active).
In the case of `CCOc1ccccc1/N=c1\oc2cc(O)ccc2cc1C(=O)NCC1CCCO1` (stereo not given), the EC50 in assay [28], in [29] and in [30] was > 120 µM (not active) throughout. For the same compound, the AC50 in the assay “cells [31]” is > 70 µM (inactive).
Regarding `O=c1c2cc([N+](=O)[O-])ccc2nc(CN2CCNCC2)n1-c1ccccc1`, the figures for the IC50 in [32] and in assay [33] were < 0.168 µM (active) and 0.15 µM (active), respectively.
